Experimental data published in patent publication US10005767B2, “Compositions and methods for inhibition of the JAK pathway” (Rigel Pharmaceuticals, Inc., priority 2009, dated 2018).

Test system: human primary T-cells, IL-2 stimulated proliferation (JAK-1 and JAK-3 dependent; reported as JAK3 activity)
Test: Human primary T-cell proliferation stimulated by IL-2 (Example 3)
Format: cell-based
Conditions: Homo sapiens, T-cell, tested under conditions described in Example 3 (IL-2 stimulated human primary T-cell proliferation); read-out: ability to inhibit JAK3 activity, IC50 range (Table V)
Summary of the method: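 Peripheral-blood human T-cells pre-activated via TCR/CD28, IL-2-starved overnight, then cultured 72 h at 37 °C with compound in Yssel's medium containing IL-2 (80 U/mL in cell suspension). Proliferation read as viable-cell ATP by CellTiter-Glo luminescence; reduction versus control taken as JAK pathway inhibition.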

| SMILES | IC50 |
| --- | --- |
| Cc1cnc(Nc2ccc(N3CCC[C@H](N(C)C(=O)OC(C)(C)C)C3)nc2)nc1Nc1ccc2oc(=O)[nH]c2c1 [II-87, (S)-tert-butyl methyl(1-(5-(5-methyl-4-(2-oxo-2,3-dihydrobenzo[d]oxazol-5-ylamino)pyrimidin-2-ylamino)pyridin-2-yl)piperidin-3-yl)carbamate] | < 500 nM |
| Cc1cnc(Nc2ccc(C(=O)Nc3ccccc3)cc2)nc1Nc1ccc2oc(=O)[nH]c2c1 [Compound I-135, 4-[5-Methyl-4-(2-oxo-2,3-dihydro-benzooxazol-5-ylamino)-pyrimidin-2-ylamino]-N-phenyl-benzamide] | < 500 nM |
| Cc1cnc(Nc2cnc3onc(C)c3c2)nc1Nc1ccc2oc(=O)[nH]c2c1 [IV-43, 5-methyl-N2-(3-methylisoxazolo[5,4-b]pyridin-5-yl)-N4-(2-oxo-2,3-dihydro-1,3-benzoxazol-5-yl)-2,4-pyrimidinediamine] | < 500 nM |
| Cc1cnc(Nc2cccc(S(N)(=O)=O)c2)nc1Nc1cc(F)c2oc(=O)[nH]c2c1 [Compound I-248, 3-(4-(7-fluoro-2-oxo-2,3-dihydrobenzo[d]oxazol-5-ylamino)-5-methylpyrimidin-2-ylamino)benzenesulfonamide] | < 500 nM |
| Cc1cnc(Nc2ccnc(N3CCNCC3)c2)nc1Nc1ccc2oc(=O)[nH]c2c1 [IV-7, N4-(benzo[d]oxazol-2(3H)-on-5-yl)-N2-[2-(piperazino)pyridin-4-yl]-5-methylpyrimidine-2,4-diamine] | 5000 to 10000 nM |
| Cc1cnc(Nc2cc(F)cc(Cl)c2)nc1Nc1ccc2oc(=O)[nH]c2c1 [Compound I-186, 5-[2-(3-Chloro-5-fluoro-phenylamino)-5-methyl-pyrimidin-4-ylamino]-3H-benzooxazol-2-one] | < 500 nM |
| Cc1cnc(Nc2ccc(C(C)N3CCOCC3)cc2)nc1Nc1ccc2oc(=O)[nH]c2c1 (centres unmarked) [Compound I-204, 5-(5-methyl-2-(4-(1-morpholinoethyl)phenylamino)pyrimidin-4-ylamino)benzo[d]oxazol-2(3H)-one] | < 500 nM |
| Cc1cnc(Nc2ccc(N3C[C@H]4C[C@@H]3CN4C)nc2)nc1Nc1ccc2oc(=O)[nH]c2c1 [II-2, N4-(benzo[d]oxazol-2(3H)-on-5-yl)-N2-(6-((1R,4R)-5-methyl-2,5-diazabicyclo[2.2.1]heptan-2-yl)-pyridin-3-yl)-5-methylpyrimidine-2,4-diamine] | < 500 nM |
| CNC(C)c1cc(Nc2ncc(C)c(Nc3ccc4oc(=O)[nH]c4c3)n2)cc(OC)c1 (centres unmarked) [Compound I-236, 5-(2-(3-methoxy-5-(1-(methylamino)ethyl)phenylamino)-5-methylpyrimidin-4-ylamino)benzo[d]oxazol-2(3H)-one] | < 500 nM |
| Cc1cnc(Nc2ccc(N3CCC(NC(=O)OC(C)(C)C)C3)nc2)nc1Nc1ccc2oc(=O)[nH]c2c1 (centres unmarked) [II-86, tert-butyl 1-(5-(5-methyl-4-(2-oxo-2,3-dihydrobenzo[d]oxazol-5-ylamino)pyrimidin-2-ylamino)pyridin-2-yl)pyrrolidin-3-ylcarbamate] | < 500 nM |
| Cc1cnc(Nc2cc(C(F)(F)F)cc(C(F)(F)F)c2)nc1Nc1ccc2oc(=O)[nH]c2c1 [Compound I-169, 5-[2-(3,5-Bis-trifluoromethyl-phenylamino)-5-methyl-pyrimidin-4-ylamino]-3H-benzooxazol-2-one] | < 500 nM |
| Cc1cccc(Nc2ncc(C)c(Nc3ccc4oc(=O)[nH]c4c3)n2)n1 [IV-51, 5-(5-methyl-2-(6-methylpyridin-2-ylamino)pyrimidin-4-ylamino)benzo[d]oxazol-2(3H)-one] | 500 to 5000 nM |
| Cc1cnc(Nc2cccc(S(=O)(=O)N3CCOCC3)c2)nc1Nc1ccc2oc(=O)[nH]c2c1 [Compound I-30, N4-(benzo[d]oxazol-2(3H)-on-5-yl)-N2-(3-(morpholinosulfonyl)phenyl)-5-methylpyrimidine-2,4-diamine] | < 500 nM |
| Cc1cnc(Nc2ccc(N3CCC(NC(=O)C4CC4)C3)nc2)nc1Nc1ccc2oc(=O)[nH]c2c1 (centres unmarked) [II-101, N-(1-(5-(5-methyl-4-(2-oxo-2,3-dihydrobenzo[d]oxazol-5-ylamino)pyrimidin-2-ylamino)pyridin-2-yl)pyrrolidin-3-yl)cyclopropanecarboxamide] | < 500 nM |
| Cc1cnc(Nc2ccc(C(=O)Nc3ccccc3)c(C(F)(F)F)c2)nc1Nc1ccc2oc(=O)[nH]c2c1 [Compound I-219, 4-(5-methyl-4-(2-oxo-2,3-dihydrobenzo[d]oxazol-5-ylamino)pyrimidin-2-ylamino)-N-phenyl-2-(trifluoromethyl)benzamide] | < 500 nM |
| Cc1cnc(Nc2ccc3[nH]c(=O)[nH]c3c2)nc1Nc1ccc2oc(=O)[nH]c2c1 [IV-29, 5-(5-methyl-2-(2-oxo-2,3-dihydro-1H-benzo[d]imidazol-5-ylamino)pyrimidin-4-ylamino)benzo[d]oxazol-2(3H)-one] | < 500 nM |
| COC(=O)c1ccc(Nc2ncc(C)c(Nc3ccc4oc(=O)[nH]c4c3)n2)cc1 [Compound I-125, 4-[5-Methyl-4-(2-oxo-2,3-dihydro-benzooxazol-5-ylamino)-pyrimidin-2-ylamino]-benzoic acid methyl ester] | < 500 nM |
| Cc1cnc(Nc2ccc(N3CCC(N4CCOCC4)C3)nc2)nc1Nc1ccc2oc(=O)[nH]c2c1 (centres unmarked) [II-84, 5-(5-methyl-2-(6-(3-morpholinopyrrolidin-1-yl)pyridin-3-ylamino)pyrimidin-4-ylamino)benzo[d]oxazol-2(3H)-one] | < 500 nM |

Same assay, conditions: tested under conditions described in Example 3 (IL-2 stimulated human primary T-cell proliferation); read-out: ability to inhibit JAK3 activity, IC50 range (Table V)

| SMILES | IC50 |
| --- | --- |
| Cc1cnc(Nc2ccc(N3CCN(C)CC3)c(CO)c2)nc1Nc1ccc2oc(=O)[nH]c2c1 [Compound I-331, N2-[3-hydroxymethyl-4-(4-methylpiperazino)]phenyl-5-methyl-N4-(2-oxo-2,3-dihydro-1,3-benzoxazol-5-yl)-2,4-pyrimidinediamine] | < 500 nM |
| Cc1cnc(Nc2ccc(F)c(NS(C)(=O)=O)c2)nc1Nc1ccc2oc(=O)[nH]c2c1 [Compound I-87, N2-((4-fluoro-3-methylsulfonylamino)phenyl)-N4-(2-oxo-2,3-dihydrobenzo[d]oxazol-5-yl)-5-methylpyrimidine-2,4-diamine] | < 500 nM |
| Cc1cnc(Nc2cc(F)c(OC(C)(C)C(N)=O)c(F)c2)nc1Nc1ccc2oc(=O)[nH]c2c1 [Compound I-395, N2-[4-(1-aminocarbonyl-1-methyl)ethoxy-3,5-difluoro]phenyl-5-methyl-N4-(2-oxo-2,3-dihydro-1,3-benzoxazol-5-yl)-2,4-pyrimidinediamine] | < 500 nM |
| Cc1cnc(Nc2ccc(CN3CCOCC3)cc2)nc1Nc1ccc2oc(=O)[nH]c2c1 [Compound I-382, 5-methyl-N2-(4-morpholinomethyl)phenyl-N4-(2-oxo-2,3-dihydro-1,3-benzoxazol-5-yl)-2,4-pyrimidinediamine] | < 500 nM |
| CS(=O)(=O)Nc1ccc(Nc2ncc(F)c(Nc3ccc4oc(=O)[nH]c4c3)n2)cc1 [Compound I-53] | < 500 nM |
| Cc1cnc(Nc2ccc(C#N)c(OC(F)F)c2)nc1Nc1ccc2oc(=O)[nH]c2c1 [Compound I-434, N2-(4-cyano-3-difluoromethoxy)phenyl-5-methyl-N4-(2-oxo-2,3-dihydro-1,3-benzoxazol-5-yl)-2,4-pyrimidinediamine] | < 500 nM |
| Cc1cnc(Nc2cc(C)c(C)c(C)c2)nc1Nc1cc(Cl)c2oc(=O)n(COP(=O)(OC(C)(C)C)OC(C)(C)C)c2c1 [Compound I-524, N4-{3-[bis(1,1-dimethylethoxy)]phosphinyloxymethyl-7-chloro-2-oxo-2,3-dihydro-1,3-benzoxazol-5-yl}-N2-(3,4,5-trimethyl)phenyl-5-methyl-2,4-pyrimidinediamine] | > 10000 nM |
| Cc1cnc(Nc2ccc(S(=O)(=O)C(F)(F)F)cc2)nc1Nc1ccc2oc(=O)[nH]c2c1 [Compound I-117, N4-(benzo[d]oxazol-2(3H)-on-5-yl)-N2-(4-trifluoromethylsulfonyl)phenyl-5-methylpyrimidine-2,4-diamine] | < 500 nM |
| Cc1cnc(Nc2ccc3c(n2)NC(=O)CO3)nc1Nc1ccc2oc(=O)[nH]c2c1 [IV-47, 5-methyl-N4-(2-oxo-2,3-dihydro-1,3-benzoxazol-5-yl)-N2-(2H-pyrido[3,2-b][1,4]oxazin-3 (4H)-one-6-yl)-2,4-pyrimidinediamine] | > 10000 nM |
| Cc1cnc(Nc2ccc(-c3cccnc3)cc2)nc1Nc1ccc2oc(=O)[nH]c2c1 [Compound I-291, 5-methyl-N4-(2-oxo-2,3-dihydro-1,3-benzoxazol-5-yl)-N2-[4-(pyridin-3-yl)]phenyl-2,4-pyrimidinediamine] | < 500 nM |
| Cc1cnc(Nc2ccc(Cl)c(N3CC(C)N(C)C(C)C3)c2)nc1Nc1ccc2oc(=O)[nH]c2c1 (centres unmarked) [Compound I-284, N2-[4-chloro-3-(3,4,5-trimethylpiperazino)]phenyl-5-methyl-N4-(2-oxo-2,3-dihydro-1,3-benzoxazol-5-yl)-2,4-pyrimidinediamine] | < 500 nM |
| Cc1cnc(Nc2cccc(F)c2)nc1Nc1ccc2oc(=O)[nH]c2c1 [Compound I-368, N2-(3-fluoro)phenyl-5-methyl-N4-(2-oxo-2,3-dihydro-1,3-benzoxazol-5-yl)-2,4-pyrimidinediamine] | < 500 nM |
| Cc1cnc(Nc2ccc(N(C)S(C)(=O)=O)cc2)nc1Nc1ccc2oc(=O)[nH]c2c1 [Compound I-93, N2-((4-methylsulfonyl-N-methylamino)phenyl)-N4-(2-oxo-2,3-dihydrobenzo[d]oxazol-5-yl)-5-methylpyrimidine-2,4-diamine] | < 500 nM |
| Cn1c(=O)oc2ccc(Nc3nc(Nc4cccc(NS(C)(=O)=O)c4)ncc3F)cc21 [Compound I-79, N2-((3-methylsulfonylamino)phenyl)-N4-(3-methyl-2-oxo-2,3-dihydrobenzo[d]oxazol-5-yl)-5-fluoropyrimidine-2,4-diamine] | 500 to 5000 nM |
